Test results reported in PMC12085399, “Quantitative in vitro-to-in vivo extrapolation of human adrenergic and trace amine-associated receptor 1 potencies of pre-workout supplement ingredients using physiologically based kinetic modelling-based reverse dosimetry” (Archives of Toxicology, 2025).
Like-named read-outs stand apart in the source and are kept apart here.

Tests used:
in vitro = conditions: human; for Papp B→A at 60 min, 10 µM: Caco-2, pH 7.4; for recovery at 60 min, 10 µM: after 60 min, mean ± SD
Description: (§1) Caco-2 cells (ATCC, Manassas, VA, USA; passage 30–44) were cultured in DMEM (Gibco, New York, USA) containing 4.5 g/L d-glucose, 4 mM L-glutamine and supplemented with 10% FBS (Gibco, Grand Island, NY, USA), 1% minimal essential medium non-essential amino acids (Gibco, Paisley, UK), 100 units/mL penicillin and 100 µg/mL streptomycin (Gibco, Grand Island, NY, USA). Cells were seeded at a density of 4.0 × 10^4 cells/cm^2 on polyester transwell insert membranes (12 mm insert, 0.4 µm pore size; Corning incorporated, Kennebunk, ME, USA). Cells were maintained in a humidified incubator with 5% CO2 at 37 °C for 21 or 22 days in 0.5 mL and 1.5 mL medium in the apical and basolateral compartments, respectively. The medium was refreshed every two or three days and always one day before the permeability assay.
(§2) On the day of the experiment, cells were washed twice with HBSS without phenol red (pH 7.4; Sigma-Aldrich, Steinheim, Germany) supplemented with 0.35 g/L sodium bicarbonate and 25 mM HEPES and they were equilibrated in this supplemented HBSS for 15 min in a humidified incubator with 5% CO2 at 37 °C. […] These stocks were diluted to a final concentration of 10 µM in pre-warmed supplemented HBSS (final DMSO level = 0.1%). After 15 min, the transepithelial electrical resistance (TEER) was measured with an Epithelial Voltohmmeter (World Precision Instruments, Sarasota, USA). Compound transport was studied in two directions: from the apical to the basolateral compartment (A-B) and from the basolateral to the apical compartment (B-A). For A-B experiments, 450 µL of the compound (10 µM) was added to the apical side and 1200 µL supplemented HBSS was added to the basolateral side. A sample of 50 µL was removed immediately from the apical compartment at time point zero. After 15 and 30 min, samples were taken from the basolateral compartment. Cells were kept in the incubator during the experiment. After 60 min, medium from both compartments was sampled, cells were washed twice with supplemented HBSS and were maintained in the incubator. After 15 min, the TEER was measured again to check for epithelial barrier damage due to compound exposure. After this, cells were lysed in RIPA buffer (Thermo Scientific, Rockford, IL, USA). For B-A experiments, 400 µL of supplemented HBSS was added to the apical side and 1250 µL of the compound (10 µM) was added to the basolateral side. A sample of 50 µL was removed immediately from the basolateral compartment at time point zero. After 15 and 30 min, samples were taken from the apical compartment. After 60 min, samples were taken similarly as in A-B experiments. The sampled medium and cell lysates were stored at −20 °C till the day of the liquid chromatography–mass spectrometry (LC–MS/MS) analysis. All experiments were run in duplicate. The compounds were quantified with LC–MS/MS as described in Sect. "LC–MS/MS analysis".
(§3) Before chemical analysis, cell lysates were two times diluted in ice-cold methanol and centrifuged at 15,000 rpm at 4 °C. The supernatant was then injected into the LC–MS/MS system. Sampled buffer from donor compartments was diluted 40 times in buffer and samples from the receiver compartment were analysed undiluted. Standards were prepared in the same assay buffer to quantify the amount of compound in medium samples. For quantification of compounds in cell lysates, standards were prepared in a mixture of 50% RIPA buffer and 50% methanol.
(§4) All data are presented as mean ± SD.
(§5) For the < Tsi > a value of 3.32 h was used (Grandoni et al. [2019]).

ADRα1A = assay: PBK modelling-based reverse dosimetry of in vitro EC50 to ED50, ADRα1A; conditions: predicted human oral ED50 from in vitro EC50 (Pinckaers et al. [2024]) and modelled Cmax plasma venous
From the text: (§6) The in vitro effect concentrations (EC50), for activation of the α1A, α1B, α1D, α2A, α2B, β1 and β2 ADR activation and the activation of TAAR1, were obtained from our previous study (Pinckaers et al. [2024]).

TAAR1 = assay: PBK modelling-based reverse dosimetry of in vitro EC50 to ED50, TAAR1; parameters: species or system human; conditions: predicted human oral ED50 from in vitro EC50 (Pinckaers et al. [2024]) and modelled Cmax plasma venous
From the text: as §6

[1] = In vitro hepatic clearance by human liver S9 (compound depletion); assay type: in vitro ADME
Description: In vitro intrinsic hepatic clearance (CLint) values of the phenethylamine analogues were determined in experiments with pooled human liver S9 (HLS9; Corning, Woburn, MA, USA and Gibco, USA), by measuring the rate of compound depletion. Stocks of 1 mM PEA compounds were prepared in DMSO and stocks of 10 mg/mL alamethicin were prepared in methanol. The final incubation mixtures consisted of 1 µM of PEA compound (0.1% DMSO) in 100 mM potassium phosphate buffer with 5 mM magnesium chloride (pH 7.4) supplemented with 0.025 mg/mL alamethicin (0.25% methanol) and 0.1–2 mg/mL HLS9. […] Incubation mixtures were first pre-incubated at 37 °C in a shaking incubator at 300 rpm for 5 min. After 5 min, the reaction was initiated by adding a co-factor mix in supplemented buffer with final concentrations of 3 mM nicotinamide adenine dinucleotide phosphate (NADPH; for oxidation, reduction and hydrolysis), 5 mM uridine diphosphate glucuronic acid (UDPGA; for glucuronidation), 0.2 mM adenosine 3’-phosphate 5’-phosphosulfate lithium salt hydrate (PAPS; for sulfation) and 0.2 mM S-(5’-Adenosyl)-L-methionine p-toluenesulfonate salt (SAM; for methylation). The final incubation volume was 100 µL and incubations were performed in 1.5 mL Safe-Lock Eppendorf tubes (Eppendorf) in a shaking incubator (300 rpm) at 37 °C (Eppendorf Thermomixer). Incubations were terminated by adding 100 µL ice-cold acetonitrile after, 0, 2.5, 5, 10, 20, 40 and 60 min. Then, samples were vortexed, put on ice and stored at -20 °C until the day of the LC–MS/MS analysis. Controls of incubation mixtures without HLS9 or mixtures without co-factors were also included. Two independent experiments, both in duplicate, were performed on different days. On the day of the LC–MS/MS analysis, samples were thawed and centrifuged at 15,000 rpm for 10 min. The supernatant was collected in glass insert vials for LC injection (BGB Analytik, Harderwijk, The Netherlands). Details on the methods of the LC–MS/MS analysis are described in Sect. "LC–MS/MS analysis". After determining the PEA (analogue) amount at the different time points, the CLint was calculated. The natural logarithm of compound concentrations was plotted against time and the slope of this curve represented the elimination rate constant k (in 1/min). The half-life (t1/2 in minutes) was calculated by: ln (2)/k (in 1/min). The volume of incubation (V) in µL/mg protein was determined by: 1000 / HLS9 concentration (in mg/mL). Finally, CLint could be calculated by: CLintμL/min/mg protein=VμL/mg protein∗ln2/t1/2min.
The fraction unbound in these in vitro liver clearance incubations was calculated with the method of (Hallifax and Houston [2006]) in which unspecific binding in HLS9 incubations was assumed to be the same as in liver microsomal incubations. The in vitro obtained HLS9 CLint values were corrected for protein binding in the HLS9 incubation and were scaled to a whole liver by using a scaling factor of 121 mg HLS9/g liver (Houston and Galetin [2008]).

ADRα2A = assay: PBK modelling-based reverse dosimetry of in vitro EC50 to ED50, ADRα2A; conditions: predicted human oral ED50 from in vitro EC50 (Pinckaers et al. [2024]) and modelled Cmax plasma venous
From the text: as §6

ADRβ2 = assay: PBK modelling-based reverse dosimetry of in vitro EC50 to ED50, ADRβ2; conditions: predicted human oral ED50 from in vitro EC50 (Pinckaers et al. [2024]) and modelled Cmax plasma venous
From the text: as §6

ADRα1D = assay: PBK modelling-based reverse dosimetry of in vitro EC50 to ED50, ADRα1D; conditions: predicted human oral ED50 from in vitro EC50 (Pinckaers et al. [2024]) and modelled Cmax plasma venous
From the text: as §6

Caco-2 cells = assay: in vitro; conditions: scaled from corrected Caco-2 Papp A-B, human
Description: as §1, §2, §3, §4, §5

ADRα1B = assay: PBK modelling-based reverse dosimetry of in vitro EC50 to ED50, ADRα1B; conditions: predicted human oral ED50 from in vitro EC50 (Pinckaers et al. [2024]) and modelled Cmax plasma venous
From the text: as §6

[2] = Caco-2, pH 7.4, Papp A-B, Caco-2, apical to basolateral, 10 µM, HBSS pH 7.4, mean ± SD, duplicate

Row | Compound | Papp B→A at 60 min, 10 µM (in vitro) | Papp A→B at 60 min, 10 µM (in vitro; [2]) | ADRα1A ED50 (ADRα1A) | TAAR1 ED50 (TAAR1) | Predicted intrinsic hepatic metabolic clearance CLmet ([1]; CLint,u scaled to a whole liver, 121 mg HLS9/g liver, human) | metabolism in incubations without co-factor mix ([1]; HLS9 without co-factor mix) | k el at 1 µM ([1]; human, pH 7.4) | microsomal CLint at 1 µM ([1]; human, s9, pH 7.4, CLint app corrected for unspecific protein (HLS9) binding, read-out: In vitro CLint,u) | microsomal CLint at 1 µM ([1]; human, s9, pH 7.4, human liver S9 with co-factor mix (NADPH, UDPGA, PAPS, SAM), 1 µM, read-out: In vitro CLint app) | ADRα2A ED50 (ADRα2A) | ADRβ2 ED50 (ADRβ2) | ADRα1D ED50 (ADRα1D) | Papp A→B at 60 min, 10 µM (in vitro; Caco-2, pH 7.4, Papp A-B corrected, corrected for the difference between Papp A-B of metoprolol in this study and in literature) | recovery at 60 min, 10 µM (in vitro; Caco-2, pH 7.4, Recovery (A-B), Caco-2, A-B experiments) | recovery at 60 min, 10 µM (in vitro; Caco-2, pH 7.4, Recovery (B-A), Caco-2, B-A experiments) | fa (fraction absorbed) (Caco-2 cells) | ka (absorption rate constant) (Caco-2 cells) | ADRα1B ED50 (ADRα1B)
1 | COCCc1ccc(OCC(O)CNC(C)C)cc1 (centres unmarked) [Metoprolol, metoprolol, reference compound] | 9.25 ± 0.17 ×10⁻⁶ cm/s | 11.2 ± 0.197 ×10⁻⁶ cm/s | – | – | – | – | – | – | – | – | – | – | – | – | – | – | – | –
2 | NCC(O)c1ccc(O)cc1 (centres unmarked) [p-Octopamine, octopamine] | 0.117 ± 0.0171 ×10⁻⁶ cm/s | 0.164 ± 0.0701 ×10⁻⁶ cm/s | 15.7 mg/kg bw | 65.8 mg/kg bw | 75.4 L/h | metabolized in incubations without co-factor mix | 0.000203 s⁻¹ | 7.06 µL/min/mg | 6.05 µL/min/mg | – (compounds with a dash (-) did not activate the receptors in vitro at concentrations ≤ 300 µM) | – (compounds with a dash (-) did not activate the receptors in vitro at concentrations ≤ 300 µM) | 1.72 mg/kg bw | 0.584 ×10⁻⁶ cm/s | 98.9 ± 1.77% | 109 ± 15% | 0.947 | 0.395 h⁻¹ | 5.58 mg/kg bw
